Assays:
[1] = test system: EB2; assay: cells; type: functional, cell-based; details: Homo sapiens;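 further: growth inhibition of EB2 cells, read out with a cell viability assay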
Description: SANGER: Inhibition of human EB2 cell growth in a cell viability assay.

[2] = test system: RPMI-6666; assay: cells; type: functional, cell-based; details: Homo sapiens
Description: SANGER: Inhibition of human RPMI-6666 cell growth in a cell viability assay.

[3] = test system: NCI-H2009; assay: cells; type: functional, cell-based, Homo sapiens; details: Homo sapiens, NCI-H2009;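 further: cell viability assay measuring inhibition of NCI-H2009 cell growth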
Description: SANGER: Inhibition of human NCI-H2009 cell growth in a cell viability assay.

[4] = test system: JIYOYE; assay: cells; type: functional, cell-based; details: Homo sapiens
Description: SANGER: Inhibition of human JiyoyeP-2003 cell growth in a cell viability assay.

[5] = test system: LC4-1; assay: cells; type: functional, cell-based; details: Homo sapiens;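 further: growth inhibition of LC4-1 cells, read out with a cell viability assay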
Description: SANGER: Inhibition of human LC4-1 cell growth in a cell viability assay.

[6] = test system: MEL-JUSO; assay: cells; type: functional, cell-based, Homo sapiens; details: Homo sapiens, MEL-JUSO;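 further: growth inhibition of human MEL-JUSO cells, read out with a cell viability assay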
Description: SANGER: Inhibition of human MEL-JUSO cell growth in a cell viability assay.

[7] = test system: NCI-H1573; assay: cells; type: functional, cell-based; details: Homo sapiens;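 further: growth inhibition of NCI-H1573 cells, read out with a cell viability assay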
Description: SANGER: Inhibition of human NCI-H1573 cell growth in a cell viability assay.

[8] = test system: NCI-H1882; assay: cells; type: functional, cell-based; details: Homo sapiens
Description: SANGER: Inhibition of human NCI-H1882 cell growth in a cell viability assay.

[9] = test system: MHH-CALL-2; assay: cells; type: functional, cell-based; details: Homo sapiens;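 further: growth inhibition of the cell line, read out in a cell viability assay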
Description: SANGER: Inhibition of human MHH-CALL-2 cell growth in a cell viability assay.

[10] = test system: PF-382; assay: cells; type: functional, cell-based; details: Homo sapiens
Description: SANGER: Inhibition of human PF-382 cell growth in a cell viability assay.

[11] = test system: L-540; assay: cells; type: functional, cell-based; details: Homo sapiens;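 further: growth inhibition of the human L-540 cell line, read out with a viability assay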
Description: SANGER: Inhibition of human L-540 cell growth in a cell viability assay.

[12] = test system: K052; assay: cells; type: functional, cell-based; details: Homo sapiens;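 further: Read-out from a cell viability assay, IC50 reflecting suppression of K052 cell growth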
Description: SANGER: Inhibition of human K052 cell growth in a cell viability assay.

[13] = test system: RPMI 8402; assay: SANGER: Inhibition of human RPMI-8402 cell growth in a cell viability assay.; type: functional, cell-based
[14] = test system: NCI-H889; assay: cells; type: functional, cell-based; details: Homo sapiens;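 further: cell growth inhibition of the cell line, read out with a viability assay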
Description: SANGER: Inhibition of human NCI-H889 cell growth in a cell viability assay.

[15] = test system: HSC-4; assay: cells; type: functional, cell-based, Homo sapiens; details: Homo sapiens, HSC-4;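 further: growth inhibition of human HSC-4 cells, read out with a cell viability assay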
Description: SANGER: Inhibition of human HSC-4 cell growth in a cell viability assay.

[16] = test system: YT; assay: cells; type: functional, cell-based; details: Homo sapiens
Description: SANGER: Inhibition of human YT cell growth in a cell viability assay.

[17] = test system: NCI-H2227; assay: cells; type: functional, cell-based; details: Homo sapiens;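 further: growth inhibition of the human cell line, read out with a cell viability assay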
Description: SANGER: Inhibition of human NCI-H2227 cell growth in a cell viability assay.

[18] = test system: TALL-1; assay: cells; type: functional, cell-based; details: Homo sapiens;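 further: growth inhibition of cultured human TALL-1 cells, read out by a cell viability assay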
Description: SANGER: Inhibition of human TALL-1 cell growth in a cell viability assay.

[19] = test system: SNU-C1; assay: cells; type: functional, cell-based; details: Homo sapiens;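 further: growth inhibition of SNU-C1 human cells, read out by a cell viability assay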
Description: SANGER: Inhibition of human SNU-C1 cell growth in a cell viability assay.

[20] = test system: LC-1F; assay: cells; type: functional, cell-based; details: Homo sapiens;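 further: growth inhibition of human LC-1F cells, read out with a cell viability assay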
Description: SANGER: Inhibition of human LC-1F cell growth in a cell viability assay.

[21] = test system: Raji; assay: cells; type: functional, cell-based; details: Homo sapiens;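 further: cell viability assay measuring inhibition of Raji cell growth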
Description: SANGER: Inhibition of human Raji cell growth in a cell viability assay.

[22] = test system: ECC4; assay: cells; type: functional, cell-based; details: Homo sapiens;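 further: growth inhibition of ECC4 cells, read out with a cell viability assay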
Description: SANGER: Inhibition of human ECC4 cell growth in a cell viability assay.

[23] = test system: HCC1599; assay: cells; type: functional, cell-based; details: Homo sapiens;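 further: growth inhibition of HCC1599 cells, read out in a cell viability assay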
Description: SANGER: Inhibition of human HCC1599 cell growth in a cell viability assay.

[24] = test system: NCI-H1522; assay: cells; type: functional, cell-based; details: Homo sapiens;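 further: growth inhibition of NCI-H1522 cells, read out with a cell viability assay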
Description: SANGER: Inhibition of human NCI-H1522 cell growth in a cell viability assay.

[25] = test system: BC1 cell line; assay: SANGER: Inhibition of human BC-1 cell growth in a cell viability assay.; type: functional, cell-based
[26] = test system: SUP-T1; assay: cells; type: functional, cell-based; details: Homo sapiens;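 further: growth inhibition of human SUP-T1 cells, read out as cell viability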
Description: SANGER: Inhibition of human SUP-T1 cell growth in a cell viability assay.

[27] = test system: NB1; assay: cells; type: functional, cell-based; details: Homo sapiens;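 further: reduction of NB1 cell proliferation, read out with a viability assay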
Description: SANGER: Inhibition of human NB1 cell growth in a cell viability assay.

[28] = test system: IMR-5; assay: cells; type: functional, cell-based; details: Homo sapiens;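 further: growth inhibition of human IMR-5 cells, read out with a cell viability assay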
Description: SANGER: Inhibition of human IMR-5 cell growth in a cell viability assay.

[29] = test system: KARPAS-422; assay: cells; type: functional, cell-based; details: Homo sapiens
Description: SANGER: Inhibition of human KARPAS-422 cell growth in a cell viability assay.

[30] = test system: BOKU; assay: cells; type: functional, cell-based; details: Homo sapiens;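 further: growth inhibition of the human BOKU cell line, read out by a cell viability assay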
Description: SANGER: Inhibition of human BOKU cell growth in a cell viability assay.

[31] = test system: RL; assay: cells; type: functional, cell-based; details: Homo sapiens
Description: SANGER: Inhibition of human RL cell growth in a cell viability assay.

[32] = test system: NCI-H345; assay: cells; type: functional, cell-based; details: Homo sapiens;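 further: growth inhibition of NCI-H345 cells measured with a cell viability assay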
Description: SANGER: Inhibition of human NCI-H345 cell growth in a cell viability assay.

[33] = test system: 23132-87; assay: cells; type: functional, cell-based, Homo sapiens; details: Homo sapiens
Description: SANGER: Inhibition of human 23132-87 cell growth in a cell viability assay.

[34] = test system: GDM-1; assay: cells; type: functional, cell-based; details: Homo sapiens;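 further: cell viability readout used to measure growth inhibition of human GDM-1 cells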
Description: SANGER: Inhibition of human GDM-1 cell growth in a cell viability assay.

[35] = test system: CMK; assay: cells; type: functional, cell-based; details: Homo sapiens;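 further: growth inhibition of CMK cells, read out as cell viability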
Description: SANGER: Inhibition of human CMK cell growth in a cell viability assay.

[36] = test system: NCI-H2196; assay: cells; type: functional, cell-based; details: Homo sapiens;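 further: cell viability assay used as the readout of growth inhibition in NCI-H2196 cells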
Description: SANGER: Inhibition of human NCI-H2196 cell growth in a cell viability assay.

[37] = test system: WSU-NHL; assay: cells; type: functional, cell-based; details: Homo sapiens;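 further: growth inhibition of human WSU-NHL cells, read out with a cell viability assay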
Description: SANGER: Inhibition of human WSU-NHL cell growth in a cell viability assay.

[38] = test system: REH; assay: cells; type: functional, cell-based; details: Homo sapiens;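 further: growth inhibition of REH cells determined with a cell viability read-out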
Description: SANGER: Inhibition of human REH cell growth in a cell viability assay.

[39] = test system: THP-1; assay: cells; type: functional, cell-based; details: Homo sapiens;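 further: growth inhibition of THP-1 cells, read out via a cell viability assay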
Description: SANGER: Inhibition of human THP-1 cell growth in a cell viability assay.

[40] = test system: BL-70; assay: SANGER: Inhibition of human BL-70 cell growth in a cell viability assay.; type: functional, cell-based
[41] = test system: NCI-H1703; assay: cells; type: functional, cell-based, Homo sapiens; details: Homo sapiens, NCI-H1703;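 further: growth inhibition of NCI-H1703 cells, read out via a cell viability assay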
Description: SANGER: Inhibition of human NCI-H1703 cell growth in a cell viability assay.

[42] = test system: Daudi; assay: cells; type: functional, cell-based; details: Homo sapiens;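 further: growth inhibition of Daudi cells, read out by a viability assay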
Description: SANGER: Inhibition of human Daudi cell growth in a cell viability assay.

[43] = test system: CA46; assay: cells; type: functional, cell-based; details: Homo sapiens;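 further: growth inhibition of human CA46 cells, read out by a cell viability assay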
Description: SANGER: Inhibition of human CA46 cell growth in a cell viability assay.

[44] = test system: SNU-423; assay: cells; type: functional, cell-based, Homo sapiens; details: Homo sapiens, SNU-423
Description: SANGER: Inhibition of human SNU-423 cell growth in a cell viability assay.

[45] = test system: LP-1; assay: cells; type: functional, cell-based; details: Homo sapiens;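 further: growth inhibition of human LP-1 cells, with the read-out taken from a cell viability assay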
Description: SANGER: Inhibition of human LP-1 cell growth in a cell viability assay.

[46] = test system: NCI-H1436; assay: cells; type: functional, cell-based; details: Homo sapiens;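 further: growth suppression of human NCI-H1436 cells, determined with a cell viability readout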
Description: SANGER: Inhibition of human NCI-H1436 cell growth in a cell viability assay.

[47] = test system: OPM-2; assay: cells; type: functional, cell-based; details: Homo sapiens;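 further: growth of OPM-2 cells measured with a viability assay, IC50 for suppression of proliferation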
Description: SANGER: Inhibition of human OPM-2 cell growth in a cell viability assay.

[48] = test system: UACC-812; assay: cells; type: functional, cell-based; details: Homo sapiens
Description: SANGER: Inhibition of human UACC-812 cell growth in a cell viability assay.

[49] = test system: BL-41; assay: cells; type: functional, cell-based; details: Homo sapiens;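 further: growth inhibition of human BL-41 cells, read out with a cell viability assay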
Description: SANGER: Inhibition of human BL-41 cell growth in a cell viability assay.

[50] = test system: TI-73; assay: cells; type: functional, cell-based; details: Homo sapiens;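 further: cell viability assay measuring how much compounds suppress growth of the cultured cell line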
Description: SANGER: Inhibition of human TI-73 cell growth in a cell viability assay.

[51] = test system: BALL-1; assay: cells; type: functional, cell-based; details: Homo sapiens;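 further: growth inhibition of BALL-1 cells, read out with a cell viability assay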
Description: SANGER: Inhibition of human BALL-1 cell growth in a cell viability assay.

[52] = test system: OC-314; assay: cells; type: functional, cell-based; details: Homo sapiens
Description: SANGER: Inhibition of human OC-314 cell growth in a cell viability assay.

[53] = test system: SW900; assay: cells; type: functional, cell-based; details: Homo sapiens;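 further: IC50 is the concentration that inhibits SW900 cell growth, measured by a cell viability assay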
Description: SANGER: Inhibition of human SW900 cell growth in a cell viability assay.

[54] = test system: TGBC11TKB; assay: cells; type: functional, cell-based; details: Homo sapiens;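 further: growth inhibition of human TGBC11TKB cells, measured by a cell viability assay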
Description: SANGER: Inhibition of human TGBC11TKB cell growth in a cell viability assay.

[55] = test system: SW 1116; assay: cells; type: functional, cell-based; details: Homo sapiens;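 further: growth inhibition of SW1116 cells, read out with a cell viability assay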
Description: SANGER: Inhibition of human SW1116 cell growth in a cell viability assay.

[56] = test system: ZR-75-30; assay: cells; type: functional, cell-based; details: Homo sapiens;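 further: growth inhibition of ZR-75-30 cells, measured with a cell viability readout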
Description: SANGER: Inhibition of human ZR-75-30 cell growth in a cell viability assay.

[57] = test system: YH-13; assay: cells; type: functional, cell-based; details: Homo sapiens;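 further: cell viability readout of growth suppression in the human YH-13 cell line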
Description: SANGER: Inhibition of human YH-13 cell growth in a cell viability assay.

[58] = test system: D-423MG; assay: cells; type: functional, cell-based; details: Homo sapiens
Description: SANGER: Inhibition of human D-423MG cell growth in a cell viability assay.

[59] = test system: EPLC-272H; assay: cells; type: functional, cell-based; details: Homo sapiens
Description: SANGER: Inhibition of human EPLC-272H cell growth in a cell viability assay.

[60] = test system: MOLT-13; assay: cells; type: functional, cell-based; details: Homo sapiens;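 further: IC50 for suppression of MOLT-13 cell growth, read out with a cell viability assay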
Description: SANGER: Inhibition of human MOLT-13 cell growth in a cell viability assay.

Q: For C[C@]1(O)C[C@@H](c2nc(-c3ccc4ccc(-c5ccccc5)nc4c3)c3c(N)nccn32)C1 [LINSITINIB], which IC50 [1] is on record?
A: > 2560 nM

Q: And the IC50 [2]?
A: > 2560 nM

Q: What about the IC50 [3] of the same compound?
A: > 2560 nM

Q: And the IC50 [4]?
A: > 2560 nM

Q: What about the IC50 [5] of the same compound?
A: > 2560 nM

Q: What about the IC50 [6] of the same compound?
A: 1160 nM

Q: What about the IC50 [7] of the same compound?
A: > 2560 nM

Q: And the IC50 [8]?
A: > 2560 nM

Q: What about the IC50 [9] of the same compound?
A: > 2560 nM

Q: What about the IC50 [10] of the same compound?
A: > 2560 nM

Q: What about the IC50 [11] of the same compound?
A: > 2560 nM

Q: What about the IC50 [12] of the same compound?
A: > 2560 nM

Q: What about the IC50 [13] of the same compound?
A: > 2560 nM

Q: What about the IC50 [14] of the same compound?
A: > 2560 nM

Q: What about the IC50 [15] of the same compound?
A: > 2560 nM

Q: What about the IC50 [16] of the same compound?
A: > 2560 nM

Q: And the IC50 [17]?
A: > 2560 nM

Q: What about the IC50 [18] of the same compound?
A: > 2560 nM

Q: What about the IC50 [19] of the same compound?
A: 293 nM

Q: And the IC50 [20]?
A: > 2560 nM

Q: And the IC50 [21]?
A: > 2560 nM

Q: What about the IC50 [22] of the same compound?
A: > 2560 nM

Q: And the IC50 [23]?
A: > 2560 nM

Q: And the IC50 [24]?
A: > 2560 nM

Q: And the IC50 [25]?
A: > 2560 nM

Q: And the IC50 [26]?
A: > 2560 nM

Q: And the IC50 [27]?
A: > 2560 nM

Q: And the IC50 [28]?
A: > 2560 nM

Q: And the IC50 [29]?
A: > 2560 nM

Q: What about the IC50 [30] of the same compound?
A: > 2560 nM

Q: What about the IC50 [31] of the same compound?
A: > 2560 nM

Q: What about the IC50 [32] of the same compound?
A: > 2560 nM

Q: And the IC50 [33]?
A: > 2560 nM

Q: And the IC50 [34]?
A: 137 nM

Q: And the IC50 [35]?
A: 999 nM

Q: What about the IC50 [36] of the same compound?
A: > 2560 nM

Q: And the IC50 [37]?
A: > 2560 nM

Q: And the IC50 [38]?
A: > 2560 nM

Q: What about the IC50 [39] of the same compound?
A: > 2560 nM

Q: What about the IC50 [40] of the same compound?
A: > 2560 nM

Q: What about the IC50 [41] of the same compound?
A: > 2560 nM

Q: And the IC50 [42]?
A: > 2560 nM

Q: What about the IC50 [43] of the same compound?
A: > 2560 nM

Q: And the IC50 [44]?
A: > 2560 nM

Q: What about the IC50 [45] of the same compound?
A: 2260 nM

Q: What about the IC50 [46] of the same compound?
A: > 2560 nM

Q: What about the IC50 [47] of the same compound?
A: 2100 nM

Q: What about the IC50 [48] of the same compound?
A: > 2560 nM

Q: What about the IC50 [49] of the same compound?
A: > 2560 nM

Q: With CN(Cc1cnc2nc(N)nc(N)c2n1)c1ccc(C(=O)N[C@@H](CCC(=O)O)C(=O)O)cc1 [METHOTREXATE] as the compound, how does the IC50 [6] read?
A: > 200 nM

Q: And the IC50 [7]?
A: > 200 nM

Q: What about the IC50 [50] of the same compound?
A: > 200 nM

Q: What about the IC50 [51] of the same compound?
A: > 200 nM

Q: What about the IC50 [15] of the same compound?
A: > 200 nM

Q: And the IC50 [52]?
A: > 200 nM

Q: And the IC50 [53]?
A: > 200 nM

Q: And the IC50 [54]?
A: > 200 nM

Q: What about the IC50 [55] of the same compound?
A: > 200 nM

Q: What about the IC50 [56] of the same compound?
A: > 200 nM

Q: What about the IC50 [57] of the same compound?
A: > 200 nM

Q: What about the IC50 [58] of the same compound?
A: > 200 nM

Q: And the IC50 [41]?
A: > 200 nM

Q: What about the IC50 [44] of the same compound?
A: > 200 nM

Q: What about the IC50 [59] of the same compound?
A: > 200 nM

Q: Which results are given for CN1CCN(CCOc2cc(OC3CCOCC3)c3c(Nc4c(Cl)ccc5c4OCO5)ncnc3c2)CC1 [SARACATINIB]?
A: IC50 [1]: > 2000 nM; IC50 [2]: > 2000 nM; IC50 [4]: > 2000 nM; IC50 [5]: > 2000 nM; IC50 [8]: > 2000 nM; IC50 [9]: > 2000 nM; IC50 [10]: > 2000 nM; IC50 [11]: > 2000 nM; IC50 [12]: > 2000 nM; IC50 [13]: > 2000 nM; IC50 [14]: > 2000 nM; IC50 [16]: > 2000 nM; IC50 [18]: > 2000 nM; IC50 [19]: > 2000 nM; IC50 [20]: > 2000 nM; IC50 [21]: > 2000 nM; IC50 [22]: > 2000 nM; IC50 [23]: > 2000 nM; IC50 [24]: > 2000 nM; IC50 [25]: > 2000 nM; IC50 [26]: > 2000 nM; IC50 [27]: > 2000 nM; IC50 [28]: > 2000 nM; IC50 [29]: > 2000 nM; IC50 [30]: > 2000 nM; IC50 [31]: > 2000 nM; IC50 [32]: > 2000 nM; IC50 [34]: > 2000 nM; IC50 [35]: > 2000 nM; IC50 [36]: > 2000 nM; IC50 [37]: > 2000 nM; IC50 [38]: > 2000 nM; IC50 [39]: > 2000 nM; IC50 [40]: > 2000 nM; IC50 [42]: > 2000 nM; IC50 [43]: > 2000 nM; IC50 [45]: > 2000 nM; IC50 [46]: 790 nM; IC50 [47]: > 2000 nM; IC50 [48]: > 2000 nM; IC50 [60]: > 2000 nM; IC50 [49]: > 2000 nM

Reference: ChEMBL document CHEMBL1201861, “Genomics of Drug Sensitity in Cancer screening data, Wellcome Trust Sanger Institute”
